Data as given in ChEMBL document CHEMBL1157539, “Thousands of chemical starting points for antimalarial lead identification” (Nature, 2010).

Tested on: Plasmodium falciparum
Assay: GSK_TCMDC: Inhibition of Plasmodium falciparum 3D7 in whole erythrocytes, using parasite LDH activity as an index of growth.
Type: functional, organism-based
Settings: Plasmodium falciparum, 3D7

Row | SMILES | XC50 [nM]
1 | NCCCNc1ccnc2cc(Cl)ccc12 | 305
2 | COc1ccc(NC(=O)C2c3ccccc3C(=O)N(CC(C)C)C2c2cccs2)cc1OC (configuration not stated) | 203
3 | O=C(/C=C/c1ccc(Cl)c(Cl)c1)N1CCC(CN2CCC(c3c[nH]c4ccncc34)CC2)CC1 | 733
4 | Cc1ccc(NC(=O)c2ccc3ncccc3c2)cc1OC1CCN(CCC(C)C)C1 (configuration not stated) | 351
5 | COc1cc(CCNC(=O)Cc2ccc3ccccc3c2)ccc1OCc1ccccc1 | 1020
6 | CN(CCN(C)C(=O)NCc1ccccc1)C(=O)NCc1ccccc1 | 930
7 | Cc1ccc(-c2cc(C(=O)Nc3ccc(S(=O)(=O)N4CCCCC4)cc3)[nH]n2)c(O)c1 | 1770
8 | Fc1cc(Cl)ccc1Nc1ccnc2cc(-c3scnc3CNCCN3CCOCC3)ccc12 | 848
9 | COc1ccc(CC(=O)NC(CCCN2CCC(c3ccccc3)CC2)c2ccc(Cl)c(Cl)c2)cc1OC (configuration not stated) | 1050
10 | COc1ccc(C2SCC(=O)N2CCc2ccc(OC)c(OC)c2)cc1 (configuration not stated) | 306
11 | CCOC(=O)NC1=NC(C)(C)N(OCCCOc2ccc(C)cc2C)C(NC(=O)OCC)=N1 | 126
12 | Cc1cccc2[nH]c(-c3cc(-c4cn[nH]c4)cnc3N)nc12 | 221
13 | CCCCCN(C(=O)Nc1cc(C(F)(F)F)cc(C(F)(F)F)c1)C(C)c1nc2ccccc2c(=O)n1CC (configuration not stated) | 787
14 | Oc1cc2c(cc1CN1CCN(Cc3ccccc3F)CC1)CCC2 | 761
15 | O=C(NC1CCC(CN2CCC(c3c[nH]c4ccccc34)CC2)CC1)c1csc(-c2cccc(Cl)c2Cl)n1 (configuration not stated) | 1730
16 | CC1CCN(c2nc(C(=O)Nc3cccc4c3CCCC4)c(C(C)C)s2)CC1 | 1040
17 | CCOc1cc(C=NNc2nc(C)cc(-n3nc(C)cc3C)n2)ccc1O | 1080
18 | CN(C)CCNC(=O)c1ccc2c(c1)ncn2-c1cc(OCc2ccccc2C(F)(F)F)c(C(N)=O)s1.CN(C)CCNC(=O)c1ccc2ncn(-c3cc(OCc4ccccc4C(F)(F)F)c(C(N)=O)s3)c2c1 | 809
19 | COc1ccc(C=NN=c2cc(C)[nH]c3ccccc23)c2ccccc12 | 752
20 | Cc1cccc2nc(-c3ccc(-c4ccc(C(=O)NCCN5CCCC5)cc4)cc3)[nH]c12 | 519
21 | Cn1nc(-c2cccc(CNC3CCc4ccccc43)c2)c2cnc(NCCCN3CCCC3)nc21 (configuration not stated) | 877
22 | COc1ccccc1Nc1nc(C)cc(NCc2ccc(-c3c(C)noc3C)cc2)n1 | 872
23 | C[C@@H](NC(=O)NC(CCN1CCC2(CC1)CN(S(C)(=O)=O)c1ccccc12)c1ccc(Cl)c(Cl)c1)c1ccccc1 (some centres not stated) | 903
24 | Nc1c(Cl)cc(C(O)CNCCCCCCCCCc2ccccn2)cc1Cl (configuration not stated) | 863

Row | SMILES | XC50 [nM]
25 | COc1ccc(C(=O)CC(=O)c2ccc(OC)cc2OC)c(OC)c1 | 300
26 | O=C(Nc1ccc2ccccc2n1)c1ccccc1-c1ccccc1 | 438
27 | COc1ccc2nccc(NC(=O)N3CCC(NCCOc4cc(F)cc(F)c4)CC3)c2n1 | 770
28 | O=C(Cn1cc(C=C2SC(=NC3CCCC3)N(C3CCCC3)C2=O)c2ccccc21)N1CCCC1 | 297
29 | CCC(C)NS(=O)(=O)c1ccc2nc(Nc3ccc(C)c(Cl)c3)n(C(C)C(C)C)c2c1 (configuration not stated) | 375
30 | COc1cccc(Nc2nc(C)cc(NCc3ccc(-n4ccnc4)cc3)n2)c1 | 958
31 | COc1ccc(CNC2Cc3ccccc3C2)cc1-c1ccc(S(=O)(=O)NCCN2CCCC2)c(F)c1 | 719
32 | O=C(/C=C/c1ccc(Cl)c(Cl)c1)N1CCC(CCCN2CCC(c3c[nH]c4ccc(O)cc34)CC2)CC1 | 694
33 | CCOC(=O)c1nc(-c2cccnc2)[nH]c1NC(=S)NCc1ccccc1 | 711
34 | CC1CCCCN1CCCNc1ncc2c(-c3ccc(NC(=O)Nc4cc(C(F)(F)F)ccc4F)c(F)c3)nn(C)c2n1 (configuration not stated) | 263
35 | COCCNC(=O)C(CNC(=O)c1ccc2c(c1)OCO2)NC(=O)c1ccc(-c2ccccc2)cc1 (configuration not stated) | 974
36 | COc1cccc(NC(=O)c2cc(C(=O)Nc3cccc(OC)c3)cc([N+](=O)[O-])c2)c1 | 661
37 | CCOC(=O)c1cc(C(=O)NCCCCN2CCC(c3ccc4c(c3OC)CCCC4)CC2)ccc1-c1ccc(C(F)(F)F)cc1 | 707
38 | COc1cccc2c(NN=Cc3ccccc3F)ccnc12 | 941
39 | CCOC(=O)c1ccc(Nc2cc(Nc3ccc(C(=O)OCC)cc3)nc(C)n2)cc1 | 907
40 | CC(C)(C)[C@@H](Nc1ccc(C#N)c2ccccc12)C(=O)NC1(Cc2ccc(O)cc2)CCCC1 | 1440
41 | COc1ccccc1N1CCN(Cc2c(O)ccc3cc(Br)ccc23)CC1 | 1150
42 | CCCCN(CCCC)CCOc1cc2c(cc1OC)CCN2C(=O)/C=C/c1ccccc1Cl | 1180
43 | CC(C)Cn1c(Sc2ccc(C#N)c([N+](=O)[O-])c2)nnc1-c1ccccc1Cl | 901
44 | CCSc1nc2sc3c(c2c(=O)n1-c1ccccc1)CCN(C)C3 | 457
45 | CC(C)c1ccc(NC(=O)c2ccc(C(=O)NC3CCN(Cc4ccccc4)CC3)cc2)cc1 | 982
46 | Cc1cc(N(CCN2CCCCC2)CCN2CCCCC2)nc(Nc2ccc(Cl)cc2)n1 | 269
47 | CN(C)CC1CCCN1Cc1ccccc1-c1cnn(C)c(=O)c1Oc1ccc(F)cc1 (configuration not stated) | 1220
48 | N=C(N)NC(=O)Nc1ccc([N+](=O)[O-])c(Cl)c1 | 880

Row | SMILES | XC50 [nM]
49 | CCOc1ccc(C(=O)Nc2cc(Br)c3c(c2)CNCC3)cc1Br | 990
50 | CC(C)(C)c1ccc(CNC(=O)c2cc(CNC3CCNC3)ccc2O)cc1 (configuration not stated) | 805
51 | Cc1cccc2nc(-c3ccc(-c4ccc(CN5CCOCC5)cc4)cc3)[nH]c12 | 818
52 | CNCCCCCCOc1ccc(CC(C)NCC(O)c2cccc(C(F)(F)F)c2)cc1 (configuration not stated) | 884
53 | CCCNCc1ccc(-c2ccc(CN(CCOC)C(=O)c3cccc(C#N)c3)cc2)nc1 | 1230
54 | COc1cccc2cc(C(=O)N[C@@H](CC(C)C)C(=O)Nc3cc(F)ccc3Br)oc12 | 965
55 | CCC(C(=O)Nc1cc(=O)[nH]c2nc(-c3ccco3)nn12)c1ccccc1 (configuration not stated) | 844
56 | CS(=O)(=O)c1ccc2[nH]c(-c3cc(-c4ccc(OCCN5CCOCC5)cc4)cnc3N)nc2c1 | 1060
57 | Cc1cc(NCCC(=O)Nc2ccccc2)nc(NCCOc2ccccc2)n1 | 1140
58 | Cc1cccc(-c2cccc3c(NC(=O)N4CCc5cc6nccc(N7CCN8CCC[C@H]8C7)c6cc54)cccc23)n1 | 916
59 | O=C(Nc1cccc(CN2CCCN(CCc3ccccc3)CC2)c1)c1cc2ccccc2s1 | 1130
60 | COc1ccc(OC)c(CNCC(O)c2cc(C(F)(F)F)cc(C(F)(F)F)c2)c1 (configuration not stated) | 443
61 | C=CCc1cc(Cc2cnc(N)nc2N)cc(CCC)c1OC | 1360
62 | c1ccc(-c2ccc(CNCCCNc3nc4ccccc4[nH]3)cc2)cc1 | 783
63 | CN(C)Cc1cccc(-c2ccc3ccnc(N)c3c2)c1 | 122
64 | CCN1CC=C(c2c[nH]c3ccccc23)CC1 | 1030
65 | O=C(NCCCCCN1CCC(c2c[nH]c3ccccc23)CC1)c1ccc(-c2cccnc2)cc1 | 1030
66 | COc1ccc2ncc(F)c(CCN3CC(O)C(CNCc4ccc5ccccc5c4)C3)c2n1 (configuration not stated) | 501
67 | Cc1ccc(O)cc1Nc1ccnc2cc(-c3ccc(CN4CCCCC4)o3)ccc12 | 166
68 | CCOc1cccc(C(=O)Nc2nonc2-c2ccc(OC)c(OC)c2)c1 | 1020
69 | Cn1cnc(CCNC(=O)c2cccc(-c3ccc(-c4nc5cc(F)ccc5[nH]4)cc3)c2)c1 | 941
70 | CN(C)c1cccc(-c2cnc3ccc(NCc4cccc(Cl)c4)nn23)c1 | 700
71 | COc1ccc(CCNCc2cc3c(C(C)(C)C)nn(-c4ccc(Cl)cc4)c3[nH]c2=O)cc1OC | 148
72 | CCN(CCNC(=O)C1CCN(c2cc(-c3cccc(C)c3)ncn2)CC1)Cc1ccccc1 | 171
